These results are taken from patent US8859574B2 (IRM LLC, priority 2008, dated 2014).

pIC50: −log10 of the molar value.

The target in this experiment is T1, IGF-1R Ba/F3 (Homo sapiens, UniProt P08069).
T1 construct: fused on or other part: TEL- (or BCR-) IGF-1R in Ba/F3: the kinase part holds the site
Briefly: Ba/F3 Cell Viability Inhibition Assay (IGF-1R Ba/F3). It is filed as cell-based, murine. To be noted: Tel-TK transformed Ba/F3 cells, 48 hours, Britelite luminescence. The source says: The IC50 of a drug may be determined constructing a dose-response curve and examining the effect of different concentrations of antagonist on reversing agonist activity. IC50 values may be calculated for a given antagonist by determining the concentration needed to inhibit half of the maximum biological response of the agonist. To calculate IC50 values, a series of dose-response data (e.g., drug concentrations x1, x2, . . . , xn and growth inhibition y1, y2, . . . , yn, the values of y are in the range of 0-1) is generated. IC50 values may be determined by a computer-aided system using the formula: y=D+((A−D)/(1+10^(x-log(IC50)B) • where A is the ratio of growth inhibition between lowest drug concentration and control; B is the slope of sigmoidal curvel; and D is the ratio of growth inhibition between highest drug concentration and control.
Ba/F3 is a murine IL-3-dependent pro-B lymphoma cell line. Parental Ba/F3 cells are used to generate a panel of sublines whose proliferation and survival is rendered IL-3-independent by stable transduction with individual tyrosine kinases activated by fusion with the amino-terminal portion of TEL (amino acid 1-375) or BCR. In order to generate Ba/F3 cell lines transformed by Tel-Tyrosine Kinase (TK) fusions, parental Ba/F3 cells are infected with a retrovirus harboring each TEL-fusion kinase and subjected to puromycin selection and IL-3 withdrawal to obtain IL-3-independent, transformed Ba/F3 cells.
Each transformed Ba/F3 cells are cultured in RPMI-1640 media (Gibco Cat #11875093, Carlsbad, Calif.) supplemented with 10% FBS (Hyclone Cat #SV30014.03, Logan, Utah), 4.5 g/L glucose (Sigma #G5400, St. Louis, Mo.), 1.5 g/L sodium bicarbonate (Biowhittaker #17-613E, Walkersville, Md.) and Pen/Strep (Gibco #10378-016, Carlsbad, Calif.). Cells are splitted twice weekly.
The potency of test compounds against various Tel-TK transformed Ba/F3 lines is determined as follows. Exponentially growing BaF3 Tel-TK cells are diluted in fresh medium to 75,000 cells/mL and seeded into 384-well plates (3750 cells/well) at 50 μL/well using a μFill liquid dispenser (BioTek, Winooski, Vt., USA). Duplicate plates are run for each cell line. Test and control compounds are serially diluted with DMSO and arrayed in a polypropylene 384-well plate. […] of compound is transferred into the assay plates using a pin-transfer device, and the plates are incubated at 37° C. (5% CO2) for 48 hours. 25 μL Britelite (Perkin Elmer) is added and luminescence is quantified using Analyst GT (Molecular Devices). Custom curve-fitting software is used to produce a logistic fit of percent cell viability as a function of the logarithm of inhibitor concentration. The IC50 is interpolated as the concentration of compound needed to reduce cell viability to 50% of a DMSO control. Parental Ba/F3 cells that are maintained and cultured in presence of IL-3 (1 ng/ml in final) are diluted in fresh medium containing IL-3 (1 ng/ml in final) to 75,000 cells/mL following the same procedure as described above.

T1 sequence (P08069 999-1274 limits assumed): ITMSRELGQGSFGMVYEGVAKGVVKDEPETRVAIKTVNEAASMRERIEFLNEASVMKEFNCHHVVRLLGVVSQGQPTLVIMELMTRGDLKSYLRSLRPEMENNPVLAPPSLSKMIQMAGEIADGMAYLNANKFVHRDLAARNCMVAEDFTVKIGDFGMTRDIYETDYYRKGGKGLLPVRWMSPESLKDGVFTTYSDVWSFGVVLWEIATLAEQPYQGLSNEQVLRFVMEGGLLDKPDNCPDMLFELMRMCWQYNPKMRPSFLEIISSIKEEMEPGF

For orientation: pIC50 means the IC50 on a negative log10 scale, so that one unit is a factor of ten. Higher therefore signals a small IC50. As for `Cc1cc(Nc2nc(Nc3cc(C)c(C4CCN(C5CCC(=O)CC5)CC4)cc3F)ncc2Cl)n[nH]1` [Compound 290, 4-(4-(4-(5-chloro-4-(5-methyl-1H-pyrazol-3-ylamino)pyrimidin-2-ylamino)-5-fluoro-2-methylphenyl)piperidin-1-yl)cyclohexanone], the negative logarithm of the IC50 (pIC50) was 7.64.
Take `Cc1cc(Nc2nc(Nc3cc(C)c(C4CCN(S(=O)(=O)c5cccnc5)CC4)cc3F)ncc2Cl)n[nH]1` [Compound 65, 5-chloro-N2-(2-fluoro-5-methyl-4-(1-(pyridin-3-ylsulfonyl)piperidin-4-yl)phenyl)-N4-(5-methyl-1H-pyrazol-3-yl)pyrimidine-2,4-diamine]: the pIC50 is 7.12.
Regarding `Cc1cc(Nc2nc(Nc3cc(C)c(C4CNC4)cc3C)ncc2Cl)n[nH]1` [Compound 237, N2-(4-(azetidin-3-yl)-2,5-dimethylphenyl)-5-chloro-N4-(5-methyl-1H-pyrazol-3-yl)pyrimidine-2,4-diamine], the pIC50 was 6.39.
Under `Cc1cc(Nc2nc(Nc3cc(Cl)c(C4CCN(C(=O)CN5CCOCC5)CC4)cc3C)ncc2Cl)n[nH]1` [Compound 95, 1-(4-(2-chloro-4-(5-chloro-4-(5-methyl-1H-pyrazol-3-ylamino)pyrimidin-2-ylamino)-5-methylphenyl)piperidin-1-yl)-2-morpholinoethanone] stands 8.22; under `Cc1cc(Nc2nc(Nc3cc(C)c(C4CCN(CCS(C)(=O)=O)CC4)cc3C)ncc2Cl)n[nH]1` [Compound 56, 5-chloro-N2-(2,5-dimethyl-4-(1-(2-(methylsulfonyl)ethyl)piperidin-4-yl)phenyl)-N4-(5-methyl-1H-pyrazol-3-yl)pyrimidine-2,4-diamine], 8.22; under `Cc1cc(Nc2nc(Nc3cc(C)c(C4CCN([C@H]5CC[C@H](O)CC5)CC4)cc3F)ncc2Cl)n[nH]1` [Compound 310, Trans-4-(4-(4-(5-chloro-4-(5-methyl-1H-pyrazol-3-ylamino)pyrimidin-2-ylamino)-5-fluoro-2-methylphenyl)piperidin-1-yl)cyclohexanol], 7.57.
In turn, `Cc1cc(Nc2nc(Nc3cc(C)c(C4CCN(C)CC4)cc3F)ncc2Cl)no1` [Compound 159, 5-chloro-N2-(2-fluoro-5-methyl-4-(1-methylpiperidin-4-yl)phenyl)-N4-(5-methylisoxazol-3-yl)pyrimidine-2,4-diamine] gave a pIC50 of 7.14.
On to `Cc1cc(Nc2nc(Nc3cc(C)c(C4CCCCN4CC(N)=O)cc3C)ncc2Cl)n[nH]1` (centres unmarked) [Compound 181, 2-(2-(4-(5-Chloro-4-(5-methyl-1H-pyrazol-3-ylamino)pyrimidin-2-ylamino)-2,5-dimethylphenyl)piperidin-1-yl)acetamide], for which the pIC50 was 7.62.
Take `CCC(C(=O)NC)N1CCC(c2cc(C)c(Nc3ncc(Cl)c(Nc4cc(C)[nH]n4)n3)cc2C)CC1` (centres unmarked) [Compound 189, 2-(4-(4-(5-chloro-4-(5-methyl-1H-pyrazol-3-ylamino)pyrimidin-2-ylamino)-2,5-dimethylphenyl)piperidin-1-yl)-N-methylbutanamide]: the pIC50 is 8.15.
Molecule `Cc1cc(Nc2nc(Nc3cc(C)c([C@H]4CCN[C@H](C)C4)cc3F)ncc2Cl)n[nH]1` (relative stereo) [Compound 279, 5-chloro-N2-(2-fluoro-5-methyl-4-((trans)-2-methylpiperidin-4-yl)phenyl)-N4-(5-methyl-1H-pyrazol-3-yl)pyrimidine-2,4-diamine] showed a pIC50 of 7.19.
For `Cc1cc(Nc2nc(Nc3cc(C)c(C4CCN(C(=O)C5(N)CC5)CC4)cc3F)ncc2Cl)n[nH]1` [Compound 93, (1-aminocyclopropyl)(4-(4-(5-chloro-4-(5-methyl-1H-pyrazol-3-ylamino)pyrimidin-2-ylamino)-5-fluoro-2-methylphenyl)piperidin-1-yl)methanone], the pIC50 was 7.48.
To `Cc1cc(Nc2nc(Nc3cc(C(F)(F)F)c(C4CCNCC4)cc3F)ncc2Cl)n[nH]1` [Compound 253, 5-chloro-N2-(2-fluoro-4-(piperidin-4-yl)-5-(trifluoromethyl)phenyl)-N4-(5-methyl-1H-pyrazol-3-yl)pyrimidine-2,4-diamine] belongs 7.12; to `Cc1cc(Nc2nc(Nc3cc(C)c(C4CCN(C(=O)CN5CCOCC5)CC4)cc3F)ncc2Cl)n[nH]1` [Compound 97, 1-(4-(4-(5-chloro-4-(5-methyl-1H-pyrazol-3-ylamino)pyrimidin-2-ylamino)-5-fluoro-2-methylphenyl)piperidin-1-yl)-2-morpholinoethanone], 7.70; to `Cc1cc(Nc2nc(Nc3cc(C)c(C4CCN(C(=O)[C@@H]5C(O)CCN5C)CC4)cc3F)ncc2Cl)n[nH]1` (stereo in doubt) [Compound 139, (4-(4-(5-chloro-4-(5-methyl-1H-pyrazol-3-ylamino)pyrimidin-2-ylamino)-5-fluoro-2-methylphenyl)piperidin-1-yl)((2S,3R)-3-hydroxy-1-methylpyrrolidin-2-yl)methanone], 6.76.
`Cc1cc(Nc2nc(Nc3cc(C)c(C4CCN(S(C)(=O)=O)CC4)cc3C)ncc2Cl)n[nH]1` [Compound 63, 5-chloro-N2-(2,5-dimethyl-4-(1-(methylsulfonyl)piperidin-4-yl)phenyl)-N4-(5-methyl-1H-pyrazol-3-yl)pyrimidine-2,4-diamine]: the negative logarithm of the IC50 (pIC50) was 8.70.
Molecule `CCN1CCC(c2cc(F)c(Nc3ncc(Cl)c(Nc4cc(C)[nH]n4)n3)cc2C(F)(F)F)CC1` [Compound 240, 5-chloro-N2-(4-(1-ethylpiperidin-4-yl)-2-fluoro-5-(trifluoromethyl)phenyl)-N4-(5-methyl-1H-pyrazol-3-yl)pyrimidine-2,4-diamine] showed a pIC50 of 6.99.
In the case of `CNC(C)(C)C(=O)N1CCC(c2cc(C)c(Nc3ncc(Cl)c(Nc4cc(C)[nH]n4)n3)cc2Cl)CC1` [Compound 88, 1-(4-(2-chloro-4-(5-chloro-4-(5-methyl-1H-pyrazol-3-ylamino)pyrimidin-2-ylamino)-5-methylphenyl)piperidin-1-yl)-2-methyl-2-(methylamino)propan-1-one], the pIC50 is 8.15.
In turn, `Cc1cc(Nc2nc(Nc3cc(C)c(C4CCN(CC5CC5(F)F)CC4)cc3F)ncc2Cl)n[nH]1` (centres unmarked) [Compound 235, 5-chloro-N-(4-(1-((2,2-difluorocyclopropyl)methyl)piperidin-4-yl)-2-fluoro-5-methylphenyl)-N^4-(5-methyl-1H-pyrazol-3-yl)pyrimidine-2,4-diamine] showed a pIC50 of 7.20.
For `Cc1cc(Nc2nc(Nc3cc(Cl)c(C4CCN(C)CC4)cc3C)ncc2Cl)n[nH]1` [Compound 7, 5-chloro-N2-(5-chloro-2-methyl-4-(1-methylpiperidin-4-yl)phenyl)-N4-(5-methyl-1H-pyrazol-3-yl)pyrimidine-2,4-diamine], the pIC50 is 7.82.
On to `CCOC(=O)N1CCC(c2cc(C)c(Nc3ncc(Cl)c(Nc4cc(C)[nH]n4)n3)cc2Cl)CC1` [Compound 67, ethyl 4-(2-chloro-4-(5-chloro-4-(5-methyl-1H-pyrazol-3-ylamino)pyrimidin-2-ylamino)-5-methylphenyl)piperidine-1-carboxylate], for which the pIC50 is 6.74.
`CNC1(C(=O)N2CCC(c3cc(C)c(Nc4ncc(Cl)c(Nc5cc(C)[nH]n5)n4)cc3C)CC2)CC1` [Compound 90, (4-(4-(5-chloro-4-(5-methyl-1H-pyrazol-3-ylamino)pyrimidin-2-ylamino)-2,5-dimethylphenyl)piperidin-1-yl)(1-(methylamino)cyclopropyl)methanone] gave a pIC50 of 8.30.
`Cc1cc(Nc2nc(Nc3cc(C)c(C4CCN([C@@H]5CCN(S(C)(=O)=O)C5)CC4)cc3F)ncc2Cl)n[nH]1` [Compound 312, (R)-5-chloro-N2-(2-fluoro-5-methyl-4-(1-(1-(methylsulfonyl)pyrrolidin-3-yl)piperidin-4-yl)phenyl)-N4-(5-methyl-1H-pyrazol-3-yl)pyrimidine-2,4-diamine] gave a pIC50 of 7.60.
To `Cc1cc(Nc2nc(Nc3cc(C)c(C4CCN(C)CC4)cc3OC(C)C)ncc2C)n[nH]1` [Compound 5, N2-(2-isopropoxy-5-methyl-4-(1-methylpiperidin-4-yl)phenyl)-5-methyl-N4-(5-methyl-1H-pyrazol-3-yl)pyrimidine-2,4-diamine] belongs 6.09.
